The subject of test [1] is Trypanosoma brucei rhodesiense. The experiment in a line: Antitrypanosomal activity against Trypanosoma brucei rhodesiense IL-1501 measured after 69 hrs by alamar blue staining based microplate fluorescence assay. The test is classed as functional, organism-based. The following applies: IL-1501, 69 h. On the technique in general: Alamar Blue is a resazurin reagent that responds to reducing activity.

The test system of test [2] is Plasmodium falciparum. The test can be described thus: Antimalarial activity against synchronized asexual blood stage Plasmodium falciparum 3D7 at 10 uM measured after 72 hrs by LDH assay. The test is classed as functional, organism-based.
In test [3] the test system is HeLa. The test can be described thus: Antiproliferative activity against human HeLa cells measured after 72 hrs by MTT assay. The test is classed as functional, cell-based. Background: Tetrazolium assays rely on reduction of a dye to a coloured formazan, in cell work by metabolically active cells.

The structures appear in SMILES notation. Activity calls are given as the source filed them. The calls are words filed in the database; no cut-off is given here. Starred links: 1 amine or outer side, 2 acyl side, 3 side chain; linkers in the order of their positions; H or OH if unused. Non-standard residues stand in square brackets, D forms with d. Residues, ends and D or L forms follow the SMILES beside them. X1 = CC[C@@H](N[*:1])[C@H](C)C(=O)[*:2]; NMeI = CC[C@H](C)[C@H](NC)C(=O)O; NMeV = CN[C@H](C(=O)O)C(C)C; Hiv = CC(C)[C@H](O)C(=O)O; NMeA = CN[C@@H](C)C(=O)O; Lac = C[C@H](O)C(=O)O

For `CC[C@H](C)[C@H]1C(=O)N[C@@H](C)C(=O)N(C)[C@@H](C(C)C)C(=O)N(C)[C@@H](C)C(=O)N[C@@H](C(C)C)C(=O)N(C)[C@@H](C(C)C)C(=O)O[C@@H](C)C(=O)N[C@H](CC)[C@H](C)C(=O)O[C@@H](C(C)C)C(=O)N1C` (cyclo(A[NMeV][NMeA]V[NMeV][Lac][X1][Hiv][NMeI])), the IC50 (in general, the concentration that inhibits the measured activity by half) in test [1] turned out to be 0.73 µM; in test [3], 3.7 µM. For the same compound, in test [2], the outcome was inactive.
`N=C(N)c1ccc(OCCCCCOc2ccc(C(=N)N)cc2)cc1` [PENTAMIDINE] yielded an IC50 in test [1] of 0.0063 µM.

The values above are taken from ChEMBL document CHEMBL5576107, “Wajeepeptin, a Cytotoxic and Antitrypanosomal Cyclic Depsipeptide from a Marine Moorena sp. Cyanobacterium” (J Nat Prod, 2024).
